Data taken from patent US12576107B2, “Methods of treating chronic inflammatory diseases” (METIMEDI PHARMACEUTICALS CO., LTD., priority 2018, dated 2026).
“Also recorded” adds a separate entry of the source.

Experiments:
hypoxia-mediated factors = assay: Brain CID in vitro experiment, Western blot in SK-N-SH cells; type: cell-based; conditions: 2.5 mM; SK-N-SH cells (human neuroblastoma); normoxia and hypoxia
Procedure: Human Brain cell line, SK-N-SH, was purchased from American Type Culture Collection (Manassas, VA, USA). The SK-N-SH cells were maintained in RPMI1640 containing 10% fetal bovine serum (Life Technologies, Gaithersburg, MD, USA), 100 IU/ml penicillin, and 100 μg/ml streptomycin (Welgene, Daegu, South Korea).
To prepare whole cell lysate, cells were lysed with lysis buffer (1% NP-40, 0.25% sodium deoxycholate, 150 mM NaCl, 1 mM EDTA, 1% Triton X-100, 50 mM Tris-HCl (pH 7.4), 10% Glycerol) with protease inhibitor cocktail (Roche, Basel, Switzerland) and phosphatase inhibitors (NA3VO4 1 mM, NaF 100 mM). Then, protein concentration was measured using the Bicinchoninic acid (BCA) assay kit (Thermo Scientific, Waltham, MA). Whole cell or nuclear lysates were transferred onto polyvinylidene fluoride membranes (Merck Millipore, Billerica, MA, USA). After blocking in 5% non-fat milk (Bio-Rad, Hercules, CA, USA) for 1 h, the membranes were incubated overnight at 4° C. with primary antibody diluted in TBST containing 100 mM Tris-HCl (pH 7.5), 1.5 M NaCl, and 0.5% Tween-20 obtained from Sigma-Aldrich, to which 5% BSA and 0.1% sodium azide (Sigma-Aldrich) had been added. Specific primary antibodies to HIF-1α (1:1000), HIF-2α (1:1000), LDH-A (1:1000), LDH-B (1:1000), TLR-4 (1:1000), NF-κB (1:1000), VEGF (1:1000), α-tubulin (1:1000), Actin (1:1000), and GAPDH (1:5000). […]

[1] = test system: nonalcoholic steatohepatitis (NASH) mice; assay: Liver CID (NASH) in vivo experiment, methionine-choline deficient (MCD) diet; conditions: 2 mg/kg subcutaneous B.I.D
Procedure: Female 5-week-old C57BL/6 mice were purchased form KOATEC (Pyeongtaek, South Korea) and were fed Methionine-Choline diet (MCD) for 4 weeks. When the mice weighed 15 g each, the mice were autopsied randomly to identify nonalcoholic steatohepatitis (NASH).
Mouse liver tissues (n=5) were dissected and fixed in 4% paraformaldehyde PBS solution for 15 h at 4° C. Fixed liver tissues were embedded in paraffin and sectioned at 10 μm. Slides were incubated at 55° C. for 2 h, and subsequently deparaffinized in xylene and rehydrated in a graded ethanol series and used for hematoxylin (Merck, Darmstadt, Germany) and eosin (H&E) staining (35). Paraffin sections (10 μm thick) stained with H&E were imaged using a Leica DM 1000 LED microscope (Leica Microsystems, Wetzlar, Germany).
Mouse liver tissues (n=5) were dissected and fixed in 4% paraformaldehyde PBS solution for 15 h at 4° C. Fixed tissues were embedded in paraffin and sectioned at 5 mm. Slides were incubated at 55° C. for 2 h, and subsequently deparaffinized in xylene and rehydrated in a graded ethanol series and re-fix in Bouin's solution for 1 hr at 56° C., remove the yellow color to rinse running tap water for 5-10 min and stained Biebrich scarlet-acid fuchsin solution for 5 min then in phosphomolybdic-phosphotungstic acid solution (ratio 1:1) for 30 minutes, and aniline blue solution and stain for 15 minutes. Rinse briefly in distilled water and in 1% acetic acid solution for 2-5 min. […] Mount with mounting medium. Imaged using a Leica DM 1000 LED microscope (Leica Microsystems, Wetzlar, Germany).
Animal Model for liver diseases. […] Female 5-week-old C57BL/6 mice were purchased form KOATEC (Pyeongtaek, South Korea) and were fed Methionine-Choline (MCD) diet for 4 weeks. […] Histological analysis. Mouse Liver tissues (n=5) were dissected and fixed in 4% paraformaldehyde PBS solution for 15 h at 4° C. Fixed liver tissues were embedded in paraffin and sectioned at 10 μm. Slides were incubated at 55° C. for 2 h, and subsequently deparaffinized in xylene and rehydrated in a graded ethanol series and used for hematoxylin (Merck, Darmstadt, Germany) and eosin (H&E) staining. Paraffin sections (10 μm thick) stained with H&E were imaged using a Leica DM 1000 LED microscope (Leica Microsystems, Wetzlar, Germany
Masson Trichrome Stain. Mouse Liver tissues (n=5) were dissected and fixed in 4% paraformaldehyde PBS solution for 15 h at 4° C. Fixed tissues were embedded in paraffin and sectioned at 5 mm. Slides were incubated at 55° C. for 2 h, and subsequently deparaffinized in xylene and rehydrated in a graded ethanol series and re-fix in Bouin's solution for 1 hr at 56° C., remove the yellow color to rinse running tap water at 5-10 min and stained Biebrich scarlet-acid fuchsin solution for 5 min than in phosphomolybdic-phosphotungstic acid solution (ratio 1:1) for minutes, and aniline blue solution and stain for 15 minutes. Rinse briefly in distilled water and in 1% acetic acid solution for 2-5 minutes. […] Mount with mounting medium. Imaged using a Leica DM 1000 LED microscope (Leica Microsystems, Wetzlar, Germany).
To induce NASH, mice were fed methionine-choline deficient (MCD) diet with polyunsaturated fat for 8 weeks. […] Results are MEAN±SD.

CC(O)C(=O)[O-].CC(O)C(=O)[O-].[Ca+2] (stereo not shown) [calcium lactate]
hypoxia-mediated factors, Western blot (hypoxia-mediated factors): decreased
liver fibrosis (collagen accumulation) ([1]; Masson trichrome): not present
serum alanine aminotransferase (ALT) ([1]; P<0.001 vs. MCD): significantly decreased
serum aspartate aminotransferase (AST) ([1]; P<0.001 vs. MCD): significantly decreased
immune cell infiltration in the liver ([1]; histology): decreased
lipid droplets in the liver ([1]; histology): not observed; also recorded: not present
liver steatosis ([1]; histology): prevented
